The text below walks through data of patent publication US20230159436A1, “APPLICATIONS OF AMIDE ANALOGS OF TRITERPENES IN CURES OF CANCER AND OTHER DISEASES” (Pacific Arrow Limited, priority 2021, published 2023).

The structures appear in SMILES notation. Read-outs that look alike come from different tables or passages of the source.

The test system of one data set is HepG2. The experiment in a line: MTT assay, liver (HepG2). The format is cell-based. The procedure:
Cells. HTB-9 (bladder), HeLa-S3 (cervix), DU145 (prostate), H460 (lung), MCF-7 (breast), K562 (leukemia), HCT116 (colon), HepG2 (liver), U2OS (bone), T98G (brain), SK-MEL-5 (Skin) and OVCAR 3, ES2 (ovary), Pancreas (Capan), Mouth (KB), Kidney (A498).
MTT Assay. The procedure for MTT assay followed the method described by Carmichael et al. (1987) with modifications. The cells were seeded into a 96-well plate at for 24 hours before drug-treatment. The cells were then exposed to the drugs for 48, 72, or 96 hours. After the drug-treatment, MTT (0.5 mg/mL) was added to cultures and incubated for an hour. The formazan (product of the reduction of tetrazolium by viable cells) formed and was dissolved with DMSO and the O.D. at 490 nm, and was measured by an ELISA reader. The MTT level of the cells before drug-treatment was also measured (T0). The % cell-growth (% G) is calculated as: % G=(TD−T0/TC−T0)×100(1), where TC or TD represents O.D. readings of control or drug-treated cells.
When T0>TD, then the cytotoxicity (LC) expressed as % of the control is calculated as: % LC=(TD−T0/T0)×100(2).

For the next data set, the system named is red blood cells (RBC). Put plainly: Haemolytic assay. The format is cell-based, human. As for the experimental part: Erythrocytes (RBC) were isolated from human blood (EDTA whole blood, collected randomly). 50 ul of the 10% RBC suspension (in PBS) was added to 2 ml of sample solutions (concentration range from 0.1 ug/ml to 400 ug/ml) in PBS. The mixture was vortexed briefly and sat for 60 min at room temperature. The mixture was spun at 3K for 10 min and the relative amounts of lysed hemoglobin in the supernatant were measured at 540 nm. The synthetic compounds of present application were tested with this method.

Data set [1] can be described thus: Pharmacokinetic (PK) study: blood from cardiac puncture. The format is in vivo, mice. As to conditions: IP 100 mg/kg, estimated. As for the experimental part:
Pharmacokinetic (PK) Study: Blood from Cardiac Puncture • Method: • Drug-Treatment: • Mice: CD-1 female mice (8-10 weeks, 25-30 g) • mice were injected (IP) with Test Drug (10 mg/ml, in 10% DMSO-20% Tween-80 in PBS) at a dose of 100 mg/kg. • At 1 and 2 hours after drug treatments, individual animals were anesthetized with isoflurane. • blood was obtained by cardiac puncture (between the chest-ribs bones). Animals were then euthanized by cervical dislocation. • Plasma Isolation: • Blood (0.6-0.8 ml) was centrifuged (2000 g, 15 minutes). Plasma was collected from the top layer. • 1 volume of plasma was mixed with 3 volume of acetonitrile/0.005% TFA. Mixture was stored in −20° C. for 6 minutes. • Sample was centrifuged (16000 g, 10 minutes). Supernatant was subjected to HPLC analysis. • HPLC Analysis Conditions: • Column: C18 μBondapak • Solvent: 60% acetonitrile/0.005% TFA (Trifluoroacetic acid) • Gradient: isocratic • Flow rate and run time: 1 ml/min for 30 minutes • Detection wavelength: 207 nm • O.D. range: 0.05 full scale • Calculation: • Standard cures of Test Drug is constructed (Area/3000K=1 ug Test Drug) • Area of Test Drug peak from Sample is Recorded • Amount of Test Drug was calculated according to standard cures.

Data set [2] has as its system K562 cells. The experiment in a line: Inhibition of leukemia K562 cells growth (cell count). The format is cell-based, human. As for the experimental part:
Method: • 1. Cells: Human leukemia cells K562 in RPMI1640 medium. • 2. Drug: Tig-S (1000× stock solution in DMSO). • 3. Start cells concentration: 50×10K per ml (500000/ml). • 4. Cells were cultured with or without drug for total of four days. • 5. Cell number is doubled after 2 days of incubation. Fresh medium (equal volume, with or without drug) was then added to culture. • 6. Cells were counted every day.

Data set [3] deals with K562 cells. Put plainly: Apoptosis in K562 cells (Annexin V / propidium iodide). The data set is classed as cell-based, human. As for the experimental part:
Experiment 34: Apoptosis in K562 Cells Induced by Tig-S • 1. Cells: Human leukemia cells K562 cultured in RPMI1640 medium. • 2. Drug: Tig-S (1000× stock solution in DMSO). • 3. Start cells concentration: 500000/ml. • 4. Cells were cultured with drug (0-20 ug/ml) for Two days. • 5. Collect cells from culture (1-4 million) by centrifugation (136×g for 5 min. remove supernatant). • 6. Wash cells with 1 ml of cold PBS, collect cells by centrifugation (136×g, 5 min, remove supernatant). • 7. Re-suspend cells in 200 ul Binding buffer (10 mM HEPES, 140 mM NaCl, 2.5 mM CaCl2, pH 7.4). • 8. Stained cells by adding 10 ul Annexin V (Alexa Fluor 488, Invitrogen cat #A13201), and 2 ul Propidium iodide (1 mg/ml in water) to cell suspension. Mix. • 9. Sit at Room temperature for 15 min. • 10. Wash cells with 1 ml binding buffer. Collect cells by centrifugation. • 11. Re-suspend cells with in 1 ml of binding buffer for analysis by flow cytometry. • 12. Flow Cytometry analysis was performed in Baylor Core Facility with a LSRII instrument. • 13. Analysis: Control cells stained with PI or Annexin V-488 (Annexin V-FITC) alone were served as references. About 50000 cells were analyzed for each sample. • 14. Cell distribution in following groups: live, early apoptosis, late-apoptosis, total apoptosis and dead cells were determined. • 15.

Take `CC=C(C)C(=O)OCC1(C)C(O)CCC2(C)C1CCC1(C)C2CC=C2C3CC(C)(C)C(O)C(O)C3(COC(=O)C(C)=CC)C(O)CC21C` (stereo not drawn) [Tig-R, 24,28-O-Tigloyl-3β,16α,21β,22α,24β,28-hexahydroxyolean-12-ene]: the “IC50 of liver (HepG2)” value in the data set on HepG2 stood at 6 µg/mL. For the same compound, the hemolytic activity result is “no hemolytic activity” in the data set on red blood cells (RBC) and “do not have hemolytic activity” with red blood cells (RBC) (up to 20 ug/ml). The half-life entry in data set [1] is on record as “about one”.

With `CC=C(C)C(=O)OCC1(C)C(O)CCC2(C)C1CCC1(C)C2CC=C2C3CC(C)(C)C(OC(=O)C(C)=CC)C(O)C3(CO)C(O)CC21C` (stereo not shown) [Tig-S], in the data set on K562 cells [2] (beginning on day 2), the “No grow (IC100)” value was at least 2.5 µg/mL. The “IC50, inhibition of Leukemia K562 cells growth” value with K562 cells [2] (cell count, up to four days) was “about 0.6 ug/ml”. In addition, in the data set with K562 cells [3], the mechanism of cell-death result was “induces cell-death by the apoptosis mechanism”.
